The record followed here is ChEMBL document CHEMBL1201862, “PubChem BioAssay data set” (2004).

Some test systems named below: 786-0; ACHN; CCRF-CEM; HCT-116; LOX IMVI; MDA-MB-231; MDA-MB-435; NCI-H23; NCI-H522; OVCAR-3; OVCAR-5; SF-268; SF-539; SK-MEL-28; SK-OV-3; TK-10; UO-31; HL-60; SNB-75; T47D.
What all share (assay): DTP human tumour cell line panel, 48 h

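The compound was tested at five concentrations on cells cultured in 96-well plates, with a 48-hour exposure period. The concentration for 50% growth inhibition is given as GI50.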 The source made the active and inactive calls. Rule as the data show it: active = GI50 up to about 1.1 µM and inactive = higher.

Turning to `COc1ccc2c(c1)C(=O)CCc1cc(OC)c(OC)c(OC)c1-2`, the GI50 in the assay with 786-0 was 0.0542 µM (active); with ACHN it was 0.0863 µM (active); in the assay on CCRF-CEM it was 0.0512 µM (active); in the assay on HCT-116, 0.0506 µM (active); with LOX IMVI it was 0.0966 µM (active); in the assay with MDA-MB-231 it was 0.166 µM (active). The GI50 in the assay on MDA-MB-435 is 0.0204 µM (active); in the assay on NCI-H23 it was 0.024 µM (active); in the assay on NCI-H522, < 0.01 µM (active); with OVCAR-3 it was 0.0409 µM (active); in the assay with OVCAR-5 it was 0.0783 µM (active); in the assay on SF-268 it was 0.0948 µM (active). The GI50 in the assay with SF-539 was < 0.01 µM (active); with SK-MEL-28, 0.0818 µM (active); in the assay with SK-OV-3 it was < 0.01 µM (active); in the assay on TK-10, 15.1 µM (inactive); in the assay with UO-31, 0.0631 µM (active).
Take `CCNc1cc2c(cc1O)CC[C@@H]1[C@@H]2CC[C@]2(C)[C@@H](O)CC[C@@H]12`: the GI50 in the assay on 786-0 was 9.91 µM (inactive); in the assay on ACHN, 8.83 µM (inactive); with CCRF-CEM, 1.41 µM (inactive); in the assay on HL-60, 1.52 µM (inactive); with LOX IMVI, 2.98 µM (inactive); with MDA-MB-231, 10.5 µM (inactive). For the same molecule, the GI50 with NCI-H23 is 12.9 µM (inactive); with NCI-H522, 2.04 µM (inactive); in the assay with OVCAR-5, 20.3 µM (inactive); in the assay with SF-268, 15.8 µM (inactive); in the assay with SK-MEL-28 it was 4.59 µM (inactive); in the assay on SNB-75, 0.272 µM (active). Besides, the GI50 is 6.04 µM (inactive) with T47D, 19.5 µM (inactive) with TK-10 and 6.75 µM (inactive) with UO-31.
Consider `COc1ccc2c(c1)c(Cc1c(C)n(C)c3ccc(OC)cc13)c(C)n2C`, for which the GI50 is 86.1 µM (inactive) in the assay on 786-0; > 100 µM (inactive) in the assay on ACHN; > 100 µM (inactive) in the assay on CCRF-CEM; > 100 µM (inactive) in the assay on HCT-116; > 100 µM (inactive) in the assay on HL-60; > 100 µM (inactive) in the assay on LOX IMVI. For the same molecule, the GI50 with NCI-H23 is > 100 µM (inactive); with NCI-H522, 34 µM (inactive); in the assay with OVCAR-3, > 100 µM (inactive); in the assay on OVCAR-5 it was > 100 µM (inactive); in the assay on SF-268 it was > 100 µM (inactive); in the assay with SF-539, > 100 µM (inactive). Besides, the GI50 in the assay on SK-MEL-28, in the assay on SK-OV-3, in the assay on SNB-75, in the assay with TK-10 and in the assay on UO-31 was > 100 µM (inactive) each time.
On to `Cc1cc(=O)cc2sc3c(C)cccc3nc1-2`, for which the GI50 was 17.6 µM (inactive) with 786-0; 49.1 µM (inactive) with ACHN; 15.4 µM (inactive) with CCRF-CEM; 22.4 µM (inactive) in the assay on HCT-116; 18.9 µM (inactive) in the assay on HL-60; 17.3 µM (inactive) in the assay with LOX IMVI. Also, the GI50 with NCI-H23 was 37.2 µM (inactive); with NCI-H522, 25.1 µM (inactive); in the assay on OVCAR-3, 15.5 µM (inactive); in the assay on OVCAR-5, 49.9 µM (inactive); with SF-268, 11.5 µM (inactive); in the assay on SF-539, 31.1 µM (inactive). For the same molecule, the GI50 is 23.1 µM (inactive) in the assay with SK-MEL-28; > 100 µM (inactive) with SK-OV-3; 69.5 µM (inactive) with SNB-75; 32.7 µM (inactive) in the assay with TK-10; 28.6 µM (inactive) with UO-31.
For `COc1ccc(/C=C2\NC(=S)N(CN3CCCCC3)C2=O)cc1`, the GI50 with 786-0 is 36.6 µM (inactive); in the assay with ACHN, 33.9 µM (inactive); in the assay on CCRF-CEM, 39.5 µM (inactive); with HCT-116, 34.6 µM (inactive); in the assay on LOX IMVI, 30.5 µM (inactive); with MDA-MB-231, > 100 µM (inactive). For the same molecule, the GI50 is 52.7 µM (inactive) in the assay on MDA-MB-435; 77.1 µM (inactive) in the assay on NCI-H23; 30.7 µM (inactive) in the assay on NCI-H522; 71.6 µM (inactive) in the assay on OVCAR-3; > 100 µM (inactive) in the assay on OVCAR-5; 18.2 µM (inactive) in the assay with SF-268. For the same molecule, the GI50 in the assay with SK-MEL-28 was > 100 µM (inactive); in the assay with SK-OV-3, > 100 µM (inactive); with SNB-75, 21 µM (inactive); with TK-10, 83.6 µM (inactive); with UO-31, 37.1 µM (inactive).
For the molecule `CCOC(=O)CCSS(=O)(=O)c1ccccc1`, the GI50 with 786-0 is 26 µM (inactive); in the assay on ACHN, > 100 µM (inactive); with CCRF-CEM, 28.4 µM (inactive); with HL-60 it was 35.8 µM (inactive); in the assay on LOX IMVI, 23.3 µM (inactive); with MDA-MB-435, > 100 µM (inactive). The GI50 is > 100 µM (inactive) in the assay on NCI-H23; > 100 µM (inactive) in the assay on OVCAR-3; 92.9 µM (inactive) in the assay with OVCAR-5; > 100 µM (inactive) in the assay on SK-MEL-28; > 100 µM (inactive) with SK-OV-3; > 100 µM (inactive) in the assay on SNB-75. For the same molecule, the GI50 is > 100 µM (inactive) in the assay with T47D, > 100 µM (inactive) in the assay on TK-10 and > 10 µM (inactive) in the assay with UO-31.
Regarding `N#Cc1cc(C#N)c(N)nc1N`, the GI50 in the assay with 786-0 was > 100 µM (inactive); with ACHN it was > 100 µM (inactive); in the assay with CCRF-CEM, > 100 µM (inactive); in the assay on HCT-116, > 100 µM (inactive); in the assay on HL-60 it was > 100 µM (inactive); in the assay on LOX IMVI, 29.9 µM (inactive). Besides, the GI50 in the assay with MDA-MB-231, with MDA-MB-435, with NCI-H23, in the assay on NCI-H522, in the assay on OVCAR-3 and with OVCAR-5 was > 100 µM (inactive) each time. Also, the GI50 with SF-539, in the assay with SK-OV-3, in the assay on SNB-75, in the assay on TK-10 and in the assay on UO-31 was > 100 µM (inactive) in each case.
Turning to `CCC1CCN=C(Cn2cc(C)c(=O)[nH]c2=O)N1` (stereo unspecified), the GI50 in the assay on 786-0 is > 100 µM (inactive); in the assay with ACHN it was > 100 µM (inactive); in the assay with CCRF-CEM it was 0.201 µM (active); in the assay with HCT-116, > 100 µM (inactive); in the assay with LOX IMVI it was > 100 µM (inactive); in the assay on MDA-MB-231 it was > 100 µM (inactive). The GI50 in the assay on NCI-H23, in the assay with NCI-H522, with OVCAR-5, in the assay with SF-268, in the assay with SK-MEL-28 and with SK-OV-3 was > 100 µM (inactive) in each case. Besides, the GI50 with SNB-75, in the assay on T47D, in the assay on TK-10 and with UO-31 was > 100 µM (inactive) each time.
For `CCN(CC)C(=O)N1CN(c2ccccc2)C2(CCN(CCCC3(c4ccc(F)cc4)OCCO3)CC2)C1=O`, the GI50 was 18.6 µM (inactive) with 786-0; > 10 µM (inactive) with ACHN; 13.9 µM (inactive) with CCRF-CEM; 11.7 µM (inactive) in the assay on HCT-116; 12.7 µM (inactive) in the assay with HL-60; 12.7 µM (inactive) in the assay with LOX IMVI. The GI50 with MDA-MB-435 was 18.6 µM (inactive); in the assay with NCI-H23, 16.1 µM (inactive); in the assay on NCI-H522, 13.7 µM (inactive); in the assay on OVCAR-3, 16.4 µM (inactive); in the assay on OVCAR-5, > 10 µM (inactive); in the assay with SF-268, 20.6 µM (inactive). For the same molecule, the GI50 in the assay on SF-539 is 16.6 µM (inactive); in the assay on SK-MEL-28, 13.8 µM (inactive); with SK-OV-3, 24.4 µM (inactive); with SNB-75 it was 19.7 µM (inactive); in the assay with T47D it was 5.9 µM (inactive); in the assay with TK-10, 17.5 µM (inactive). Besides, the GI50 in the assay on UO-31 was 18.4 µM (inactive).
`CCCSc1ccc2[nH]c(N3C(=O)/C(=C/c4ccco4)N=C3c3ccccc3)cc2c1`: the GI50 with 786-0 was 23.7 µM (inactive); in the assay with ACHN, 38.8 µM (inactive); with CCRF-CEM, 19.3 µM (inactive); in the assay with HCT-116 it was 21.8 µM (inactive); in the assay on HL-60, 11.9 µM (inactive); in the assay on LOX IMVI, 27.8 µM (inactive). For the same molecule, the GI50 with MDA-MB-435 was 8.71 µM (inactive); in the assay with NCI-H23, 34.8 µM (inactive); with NCI-H522 it was 13.2 µM (inactive); in the assay on OVCAR-3 it was 21.6 µM (inactive); with OVCAR-5, > 50 µM (inactive); with SF-268, 33 µM (inactive). The GI50 in the assay on SF-539 was 9.42 µM (inactive); with SK-MEL-28, 33.7 µM (inactive); with SNB-75 it was 44 µM (inactive); in the assay with T47D, 27.6 µM (inactive); in the assay on UO-31, 38.3 µM (inactive).
Consider `C=C1C(=O)OC2C[C@H](C)C3CC(=O)C(C)=C3CC12` (stereo partly specified), for which the GI50 in the assay on 786-0 was 13 µM (inactive); in the assay on ACHN, 12.1 µM (inactive); in the assay with CCRF-CEM it was 3.44 µM (inactive); in the assay with HCT-116, 6.38 µM (inactive); in the assay with HL-60, 2.33 µM (inactive); in the assay with LOX IMVI, 15 µM (inactive). Further, the GI50 in the assay with NCI-H23 is 13.6 µM (inactive); in the assay with NCI-H522 it was 1.75 µM (inactive); in the assay with OVCAR-3, 12.1 µM (inactive); in the assay on OVCAR-5, 15.1 µM (inactive); in the assay with SF-268, 18.2 µM (inactive); with SF-539, 17.2 µM (inactive). For the same molecule, the GI50 in the assay with SK-MEL-28 is 5.28 µM (inactive); in the assay with SK-OV-3, > 57 µM (inactive); with SNB-75, 14.6 µM (inactive); in the assay with TK-10, 15.8 µM (inactive); in the assay with UO-31, 11.8 µM (inactive).
For `COC(=O)[C@@]1(C(C)CC(=O)O)CCCCC1=O` (stereo partly specified), the GI50 in the assay with 786-0 is 27 µM (inactive); in the assay on ACHN it was > 100 µM (inactive); with CCRF-CEM it was > 100 µM (inactive); in the assay on HCT-116 it was > 100 µM (inactive); in the assay on HL-60, > 100 µM (inactive); in the assay on LOX IMVI it was 93.8 µM (inactive). The GI50 with NCI-H23, in the assay with NCI-H522, in the assay with OVCAR-3, in the assay on OVCAR-5, with SF-268 and in the assay on SF-539 was > 100 µM (inactive) in each case. Besides, the GI50 in the assay on SK-MEL-28, in the assay on SK-OV-3, with SNB-75, in the assay on TK-10 and in the assay on UO-31 was > 100 µM (inactive) in each case.
